From patent US20070191364A1, “AMINOPIPERIDINE DERIVATIVES, PREPARATION THEREOF AND THERAPEUTIC USE THEREOF” (SANOFI-AVENTIS, priority 2004, published 2007) come the findings set out here.

Structures can show the parent of a compound that is named as a salt.

For one data set, the target named is T1, human MC3 receptor (Homo sapiens, UniProt P41968).
T1 construct: expressed in transfected cells; host or cells: CHO(dhfr-)
The data set is described as follows: Functional agonist assay: cAMP formation in CHO(dhfr-) cells. It is filed as cell-based. The note with it: 1 hour incubation, read-out: EC50 with respect to the MC3 receptor. On the procedure:
(§1) A functional assay is used to differentiate between the agonist activity and the antagonist activity. For this, the formation of cyclic adenosine monophosphate (cAMP) generated by activation of the MC3 receptor or of the MC4 receptor is assayed.
CHO(dhfr-) cells expressing the human MC3 receptor are seeded into MEM Eagle culture medium (Sigma) containing 10% of dialysed calf serum, 1% L-glutamine, 1% sodium pyruvate, 20 mg/500 ml L-proline, 0.3 mg/ml Geneticin and 0.5% PenStrep, these products being provided by Gibco/BR1, except for the dialysed calf serum (Cambrex) and the L-proline (Sigma).
(§2) The compounds to be tested (diluted in 10% DMSO), in an amount of 10 μl at a concentration of 10 times the final concentration, are added to the plates of cells (final volume=100 μl/well). After incubation for 1 hour (37° C., 5% CO2), the amount of cAMP is assayed using Tropix kits (Appelera) according to the supplier's documentation. The intrinsic activity of the compounds is calculated by comparing the stimulation of cAMP by these compounds to the stimulation induced by 30 nM of NDP[…]MSH (maximum of 100%). The EC50 value for the compounds corresponds to the concentration which produces 50% of the maximum stimulation obtained with this compound.

In data set [1] the target is T2, human MC4 receptor (Homo sapiens, UniProt P32245).
T2 construct: host or cells: CHO-K1
T2 sequence (P32245 whole entry): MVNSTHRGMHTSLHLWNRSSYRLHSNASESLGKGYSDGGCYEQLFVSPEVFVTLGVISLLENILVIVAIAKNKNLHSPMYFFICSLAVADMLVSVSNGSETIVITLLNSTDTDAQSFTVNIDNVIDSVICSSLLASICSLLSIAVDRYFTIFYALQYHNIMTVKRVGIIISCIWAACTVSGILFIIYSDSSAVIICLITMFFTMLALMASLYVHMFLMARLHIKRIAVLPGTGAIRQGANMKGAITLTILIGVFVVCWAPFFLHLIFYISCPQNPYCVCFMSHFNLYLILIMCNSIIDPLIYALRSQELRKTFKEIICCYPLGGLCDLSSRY
Nature of the data set: Functional agonist assay: cAMP formation in CHO-K1 cells. It is filed as cell-based. The note with it: 1 hour incubation, read-out: EC50 with respect to the MC4 receptor. On the procedure:
as §1
CHO-K1 cells, expressing the human MC4 receptor at a moderate density (Euroscreen), are seeded into DMEM/Nutrient Mix F12 culture medium (Gibco/BR1) containing 10% of foetal calf serum, 0.5% sodium pyruvate, 1% L-glutamine, 1% non-essential amino acids, 200 mg/l hygromycin B and 0.5% PenStrep, these products being provided by Gibco/BR1, except the calf serum (Biowhittaker) and hygromycin B (Sigma).
as §2

Data set [2] deals with T2, human MC4 receptor. The data set is described as follows: Affinity assay: displacement of [125I]-[Nle4,D-Phe7]-α-MSH binding to membranes of CHO-K1 cells (SPA). The note with it: radioligand displacement, 100 pM [125I]-NDP-α-MSH, 6 h; read-out: IC50 with respect to the MC4 receptor. On the procedure:
This affinity assay is carried out by measuring the binding of [^125I]-[Nle^4-D-Phe^7]-[…]-MSH to cell membranes. The displacement of this radioligand is used to identify inhibitors of the specific binding to recombinant melanocortin receptors.
For this assay, membranes prepared from CHO-K1 cells expressing the human MC4 receptor at high density (Euroscreen) or membranes, that were purchased (Perkin Elmer Life Sciences, Receptor Biology), of HEK-293 cells expressing hMC3 receptors were used. CHO-K1 cells transfected with the hMC4 receptor gene (Euroscreen) are seeded into DMEM/Nutrient Mix F12 culture medium containing 10% foetal calf serum (Biowhittaker), 1% sodium pyruvate, 1% L-glutamine, 1% non-essential amino acids, 0.4 mg/ml geneticin (G418) and 0.5% PenStrep, these products being provided by Gibco/BR1, except the calf serum. At 80% confluency, the cells are scraped off and the cell pellets are frozen at −80° C. […]
[^125I]-[Nle^4, D-Phe^7]-[…]-MSH is diluted in binding buffer+0.2% BSA. […] The nonspecific binding is defined by NDP-[…]MSH at 10^−7 M. The total binding is measured by the number of counts per minute in the presence of the radioligand alone. […]

T1 sequence (P41968 whole entry): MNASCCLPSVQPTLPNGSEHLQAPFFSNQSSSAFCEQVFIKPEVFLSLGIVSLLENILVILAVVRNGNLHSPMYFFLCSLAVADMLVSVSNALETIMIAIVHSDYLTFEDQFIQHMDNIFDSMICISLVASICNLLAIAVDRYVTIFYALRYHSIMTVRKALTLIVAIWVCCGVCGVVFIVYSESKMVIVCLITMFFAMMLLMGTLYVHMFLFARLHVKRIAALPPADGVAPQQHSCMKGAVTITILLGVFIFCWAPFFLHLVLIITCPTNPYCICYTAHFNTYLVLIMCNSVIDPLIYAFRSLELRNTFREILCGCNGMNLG

The EC50 is the concentration at which the effect is half-maximal. As for `CCN(CC)C(=O)N(C1CCCCC1)C1CCN(C(=O)[C@@H](Cc2ccc(Cl)cc2)NC2CCNCC2)CC1` [Compound 1, N-[1-(4-chloro-N-piperidin-4-yl-D-phenylalanyl)piperidin-4-yl]-N-cyclohexyl-N′,N′-diethylurea], the EC50 at human MC3 receptor was 590 nM; on human MC4 receptor [1] it was 80 nM.

The melting point is the temperature, or range, at which the solid turns liquid. Turning to `CCN(CC)C(=O)N(C1CCCCC1)C1CCN(C(=O)[C@@H](Cc2ccc(Cl)cc2)NC2CCC(N)CC2)CC1` (stereo partly drawn) (as salt: HCl) [Compound 2, N-{1-[N-(4-aminocyclohexyl)-4-chloro-D-phenylalanyl]piperidin-4-yl}-N-cyclohexyl-N′,N′-diethylurea hydrochloride], the melting point is 195 °C. In turn, `CCN(CC)C(=O)N(C1CCCCC1)C1CCN(C(=O)[C@@H](Cc2ccc(Cl)cc2)NC2CCNCC2)CC1` (as salt: HCl) [Compound 1, N-[1-(4-chloro-N-piperidin-4-yl-D-phenylalanyl)piperidin-4-yl]-N-cyclohexyl-N′,N′-diethylurea] yielded a melting point of over 220 °C.

One may read the IC50 as the concentration that inhibits the measured activity by half. For `CCN(CC)C(=O)N(C1CCCCC1)C1CCN(C(=O)[C@@H](Cc2ccc(Cl)cc2)NC2CCC(N)CC2)CC1` (stereo partly drawn) [Compound 2, N-{1-[N-(4-aminocyclohexyl)-4-chloro-D-phenylalanyl]piperidin-4-yl}-N-cyclohexyl-N′,N′-diethylurea hydrochloride], the EC50 on human MC3 receptor was determined as 370 nM; at human MC4 receptor [1] it was 30 nM. Further, the IC50 on human MC4 receptor [2] is 300 nM.
